Measurements as given in ChEMBL document CHEMBL4680375 (ACS Med Chem Lett, 2021).
Blank lines part the entries; values can stand above or below the compound they belong to. Active and inactive are the calls of the source. No cut-off for these calls is given here.

Assays:
[1] = target: NAD-dependent protein deacylase sirtuin-6 (Homo sapiens, UniProt Q8N6T7); test: Inhibition of recombinant N-terminal hexa-His-tagged SIRT6 (3 to 318 residues) (unknown origin) expressed in Escherichia coli BL21 (DE3) using RHKKac-AMC as substrate incubated for 2 hrs in presence of NAD+ by fluorescence microplate reader assay
[2] = target: NAD-dependent protein deacylase sirtuin-5, mitochondrial (Homo sapiens, UniProt Q9NXA8); test: Inhibition of N-terminal 8His-tagged human SIRT5 (34 to 302 residues) expressed in Escherichia coli Rosetta2 (DE3) using Abz-GVLKacAYNO2GY-NH2 peptide as substrate incubated for 30 mins in presence of NAD+ by fluorescence microplate reader assay; settings: read-out: IC50
[3] = target: T1, NAD-dependent protein deacetylase sirtuin-2 (Homo sapiens, UniProt Q8IXJ6); test: Inhibition of GST-fusion tagged human SIRT2 (34 to 356 residues) expressed in Escherichia coli BL21 (DE3) using Abz-GVLKacAYNO2GY-NH2 peptide as substrate incubated for 30 mins in presence of NAD+ by fluorescence microplate reader assay
T1 sequence (Q8IXJ6 whole entry): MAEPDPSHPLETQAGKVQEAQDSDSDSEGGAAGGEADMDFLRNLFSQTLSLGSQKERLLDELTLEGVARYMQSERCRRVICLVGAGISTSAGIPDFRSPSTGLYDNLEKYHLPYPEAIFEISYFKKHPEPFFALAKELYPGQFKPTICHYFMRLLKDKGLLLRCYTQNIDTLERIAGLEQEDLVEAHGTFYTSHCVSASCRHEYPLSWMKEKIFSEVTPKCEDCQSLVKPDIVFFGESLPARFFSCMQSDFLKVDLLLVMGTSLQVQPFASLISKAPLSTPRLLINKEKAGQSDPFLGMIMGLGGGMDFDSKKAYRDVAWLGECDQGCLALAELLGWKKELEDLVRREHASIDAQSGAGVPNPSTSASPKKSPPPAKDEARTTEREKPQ

[4] = target: T2, NAD-dependent protein deacetylase sirtuin-1 (Homo sapiens) (UniProt Q96EB6); test: Non-competitive inhibition of N-terminal hexa-His-tagged human SIRT1 (156 to 664 residues) expressed in Escherichia coli BL21 (DE3) assessed as decrease in initial velocity V0 at 0.47 to 1.98 uM using Abz-GVLKacAYNO2GY-NH2 as substrate in presence of varying level of NAD+ by Lineweaver-burk plot analysis; settings: dose 0.47-1.98 µM
T2 sequence (whole entry): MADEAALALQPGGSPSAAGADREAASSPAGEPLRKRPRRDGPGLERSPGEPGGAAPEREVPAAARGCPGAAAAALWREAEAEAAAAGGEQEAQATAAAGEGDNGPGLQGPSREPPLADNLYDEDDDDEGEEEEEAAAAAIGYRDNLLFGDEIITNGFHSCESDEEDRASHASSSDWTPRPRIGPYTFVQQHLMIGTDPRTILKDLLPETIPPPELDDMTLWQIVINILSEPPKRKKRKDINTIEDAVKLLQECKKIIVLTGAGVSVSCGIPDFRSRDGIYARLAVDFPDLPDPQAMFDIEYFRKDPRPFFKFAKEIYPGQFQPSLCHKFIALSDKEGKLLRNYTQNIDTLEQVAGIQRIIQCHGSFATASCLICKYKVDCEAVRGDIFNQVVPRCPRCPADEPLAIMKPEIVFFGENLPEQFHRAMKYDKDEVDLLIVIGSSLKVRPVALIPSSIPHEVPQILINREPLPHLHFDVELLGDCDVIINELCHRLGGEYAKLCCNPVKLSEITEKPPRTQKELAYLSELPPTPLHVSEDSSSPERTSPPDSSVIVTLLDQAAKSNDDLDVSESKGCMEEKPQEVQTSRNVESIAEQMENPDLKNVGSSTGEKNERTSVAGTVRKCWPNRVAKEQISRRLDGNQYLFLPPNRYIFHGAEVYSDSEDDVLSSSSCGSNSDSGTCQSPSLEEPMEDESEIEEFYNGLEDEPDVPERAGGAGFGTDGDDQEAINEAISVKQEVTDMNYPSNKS

[5] = target: T2, NAD-dependent protein deacetylase sirtuin-1 (Homo sapiens); test: Mixed-type inhibition of N-terminal hexa-His-tagged human SIRT1 (156 to 664 residues) expressed in Escherichia coli BL21 (DE3) assessed as decrease in initial velocity V0 at 0.47 to 1.98 uM using varying levels Abz-GVLKacAYNO2GY-NH2 peptide as substrate in presence of NAD+ by Lineweaver-burk plot analysis; settings: dose 0.47-1.98 µM
[6] = target: NAD-dependent protein deacetylase sirtuin-1 (Homo sapiens, UniProt Q96EB6, N346A); test: Inhibition of N-terminal hexa-His-tagged human SIRT1 N346A mutant (156 to 664 residues) expressed in Escherichia coli BL21 (DE3) assessed as dissociation equilibrium constant using Abz-GVLKacAYNO2GY-NH2 as substrate in presence of varying level of NAD+ by Lineweaver-burk plot analysis
[7] = target: T2, NAD-dependent protein deacetylase sirtuin-1 (Homo sapiens); test: Mixed-type inhibition of N-terminal hexa-His-tagged human SIRT1 (156 to 664 residues) expressed in Escherichia coli BL21 (DE3) assessed as decrease in Km at 0.47 to 1.98 uM using varying levels Abz-GVLKacAYNO2GY-NH2 peptide as substrate in presence of NAD+ by Lineweaver-burk plot analysis; settings: dose 0.47-1.98 µM
[8] = target: NAD-dependent protein deacetylase sirtuin-1 (Homo sapiens, UniProt Q96EB6, F414A); test: Inhibition of N-terminal hexa-His-tagged human SIRT1 F414A mutant (156 to 664 residues) expressed in Escherichia coli BL21 (DE3) assessed as dissociation equilibrium constant using Abz-GVLKacAYNO2GY-NH2 as substrate in presence of varying level of NAD+ by Lineweaver-burk plot analysis
[9] = target: NAD-dependent protein deacetylase sirtuin-1 (Homo sapiens, UniProt Q96EB6, I347A); test: Inhibition of N-terminal hexa-His-tagged human SIRT1 I347A mutant (156 to 664 residues) expressed in Escherichia coli BL21 (DE3) assessed as dissociation equilibrium constant using Abz-GVLKacAYNO2GY-NH2 as substrate in presence of varying level of NAD+ by Lineweaver-burk plot analysis
[10] = target: T2, NAD-dependent protein deacetylase sirtuin-1 (Homo sapiens); test: Non-competitive inhibition of N-terminal hexa-His-tagged human SIRT1 (156 to 664 residues) expressed in Escherichia coli BL21 (DE3) assessed as effect on Km at 0.47 to 1.98 uM using Abz-GVLKacAYNO2GY-NH2 as substrate in presence of varying level of NAD+ by Lineweaver-burk plot analysis; settings: dose 0.47-1.98 µM
[11] = target: T2, NAD-dependent protein deacetylase sirtuin-1 (Homo sapiens); test: Inhibition of SIRT1 in human SH-SY5Y cells assessed as increase in acetylated p53 level at 10 uM measured after 72 hrs in presence of ATRA by Western blot analysis; assay type: cell-based
[12] = target: NAD-dependent protein deacetylase sirtuin-1 (Homo sapiens, UniProt Q96EB6, F273L); test: Inhibition of N-terminal hexa-His-tagged human SIRT1 F273L mutant (156 to 664 residues) expressed in Escherichia coli BL21 (DE3) assessed as dissociation equilibrium constant using Abz-GVLKacAYNO2GY-NH2 as substrate in presence of varying level of NAD+ by Lineweaver-burk plot analysis
[13] = target: T3, NAD-dependent protein deacetylase sirtuin-1 (Homo sapiens, UniProt Q96EB6); test: Inhibition of N-terminal hexa-His-tagged human SIRT1 (156 to 664 residues) expressed in Escherichia coli BL21 (DE3) assessed as deacetylation of Abz-labeled acetyl peptide using Abz-GVLKacAYNO2GY-NH2 peptide as substrate incubated for 30 mins in presence of NAD+ by fluorescence microplate reader assay; settings: read-out: IC50
T3 sequence (Q96EB6 whole entry): T2 sequence (whole entry)

[14] = Inhibition of N-terminal hexa-His-tagged human SIRT1 D348A mutant (156 to 664 residues) expressed in Escherichia coli BL21 (DE3) assessed as dissociation equilibrium constant using Abz-GVLKacAYNO2GY-NH2 as substrate in presence of varying level of NAD+ by Lineweaver-burk plot analysis
[15] = target: T3, NAD-dependent protein deacetylase sirtuin-1; test: Inhibition of wild type N-terminal hexa-His-tagged human SIRT1 (156 to 664 residues) expressed in Escherichia coli BL21 (DE3) assessed as dissociation equilibrium constant using Abz-GVLKacAYNO2GY-NH2 as substrate in presence of varying level of NAD+ by Lineweaver-burk plot analysis
[16] = target: T4, NAD-dependent protein deacetylase sirtuin-3, mitochondrial (Homo sapiens, UniProt Q9NTG7); test: Inhibition of SIRT3 (unknown origin)
T4 sequence (Q9NTG7 whole entry): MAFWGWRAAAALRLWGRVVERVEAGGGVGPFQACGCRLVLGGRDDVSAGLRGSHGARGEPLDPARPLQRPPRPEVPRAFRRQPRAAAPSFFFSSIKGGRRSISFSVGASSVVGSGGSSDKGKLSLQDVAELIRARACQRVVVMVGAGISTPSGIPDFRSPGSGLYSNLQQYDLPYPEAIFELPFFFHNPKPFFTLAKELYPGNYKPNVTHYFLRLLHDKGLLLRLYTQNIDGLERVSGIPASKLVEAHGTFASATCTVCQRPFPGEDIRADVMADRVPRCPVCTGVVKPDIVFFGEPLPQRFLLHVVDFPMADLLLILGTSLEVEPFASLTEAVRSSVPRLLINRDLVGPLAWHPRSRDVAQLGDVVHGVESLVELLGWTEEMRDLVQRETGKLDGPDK

[17] = target: T3, NAD-dependent protein deacetylase sirtuin-1; test: Inhibition of His-tagged SIRT1 (unknown origin) expressed in Escherichia coli codon plus (DE3) using acetylated p53 as substrate

Chain of NAD-dependent protein deacetylase sirtuin-1 (Homo sapiens, UniProt Q96EB6, F414A) (Q96EB6 2-747 F414A limits assumed): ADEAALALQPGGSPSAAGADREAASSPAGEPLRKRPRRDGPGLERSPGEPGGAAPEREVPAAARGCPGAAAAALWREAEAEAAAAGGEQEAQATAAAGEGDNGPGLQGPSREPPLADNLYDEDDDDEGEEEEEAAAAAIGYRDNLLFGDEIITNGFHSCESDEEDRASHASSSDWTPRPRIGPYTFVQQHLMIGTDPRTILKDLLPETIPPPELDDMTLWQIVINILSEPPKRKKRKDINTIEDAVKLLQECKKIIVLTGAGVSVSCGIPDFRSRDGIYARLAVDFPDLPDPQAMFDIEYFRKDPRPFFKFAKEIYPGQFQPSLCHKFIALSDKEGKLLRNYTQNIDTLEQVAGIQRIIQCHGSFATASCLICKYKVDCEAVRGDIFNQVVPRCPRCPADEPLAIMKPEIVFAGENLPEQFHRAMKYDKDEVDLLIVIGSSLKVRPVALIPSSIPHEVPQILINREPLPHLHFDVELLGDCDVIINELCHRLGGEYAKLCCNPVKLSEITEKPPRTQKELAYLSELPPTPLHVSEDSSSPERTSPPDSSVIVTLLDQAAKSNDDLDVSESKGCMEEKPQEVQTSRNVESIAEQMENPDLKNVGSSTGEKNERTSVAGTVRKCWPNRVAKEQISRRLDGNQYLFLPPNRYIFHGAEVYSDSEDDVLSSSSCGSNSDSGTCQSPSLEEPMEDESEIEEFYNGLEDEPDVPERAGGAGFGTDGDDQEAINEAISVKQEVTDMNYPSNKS
Chain of NAD-dependent protein deacetylase sirtuin-1 (Homo sapiens, UniProt Q96EB6, F273L) (Q96EB6 2-747 F273L limits assumed): as the sequence (Q96EB6 2-747 F414A limits assumed) above, with F272L, A413F counted along it
Chain of NAD-dependent protein deacylase sirtuin-6 (Q8N6T7 whole entry, the tested form may be a part): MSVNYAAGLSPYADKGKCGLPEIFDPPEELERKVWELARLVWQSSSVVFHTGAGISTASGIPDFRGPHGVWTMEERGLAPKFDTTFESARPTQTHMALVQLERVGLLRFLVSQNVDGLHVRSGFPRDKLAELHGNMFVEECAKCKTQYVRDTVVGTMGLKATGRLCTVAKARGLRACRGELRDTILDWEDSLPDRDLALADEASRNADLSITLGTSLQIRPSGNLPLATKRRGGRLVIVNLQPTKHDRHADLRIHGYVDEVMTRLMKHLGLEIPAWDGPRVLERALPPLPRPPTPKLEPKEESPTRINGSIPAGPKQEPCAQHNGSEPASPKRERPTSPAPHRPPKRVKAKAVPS
Chain of NAD-dependent protein deacylase sirtuin-5, mitochondrial (Q9NXA8 whole entry, the tested form may be a part): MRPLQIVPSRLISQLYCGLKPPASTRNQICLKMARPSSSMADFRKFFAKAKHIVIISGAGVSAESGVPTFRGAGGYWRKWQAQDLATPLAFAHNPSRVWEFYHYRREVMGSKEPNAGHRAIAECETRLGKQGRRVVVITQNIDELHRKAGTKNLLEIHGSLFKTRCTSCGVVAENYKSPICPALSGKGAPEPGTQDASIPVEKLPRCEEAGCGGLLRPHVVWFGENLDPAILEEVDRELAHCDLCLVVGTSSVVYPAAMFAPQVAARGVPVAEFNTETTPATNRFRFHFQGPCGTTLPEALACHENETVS
Chain of NAD-dependent protein deacetylase sirtuin-1 (Homo sapiens, UniProt Q96EB6, N346A) (Q96EB6 2-747 N346A limits assumed): as the sequence (Q96EB6 2-747 F414A limits assumed) above, with N345A, A413F counted along it
Chain of NAD-dependent protein deacetylase sirtuin-1 (Homo sapiens, UniProt Q96EB6, I347A) (Q96EB6 2-747 I347A limits assumed): as the sequence (Q96EB6 2-747 F414A limits assumed) above, with I346A, A413F counted along it

- IC50 [1]: Not Active
- IC50 [2]: 19800 nM
- IC50 [3]: 54000 nM
- inhibition [4]: Active
- inhibition [5]: Active
- Ki [6]: 1940 nM
- inhibition [7]: Active
- Ki [8]: 18200 nM
- Ki [9]: 710 nM
- inhibition [10]: Active
- increase in acetylated p53 level (qualitative) [11]: Active
- Ki [12]: 650 nM
- IC50 [13]: 1310 nM
- Ki [15]: 100 nM
Structure (SMILES): COc1cc(C=C2C(=O)OC(c3ccccc3)OC2=O)cc(Br)c1O (configuration not stated)
- Ki [14]: 7060 nM

- IC50 [16]: 22000 nM
Structure (SMILES): CC1=CCC(C(=O)/N=C2\CC=C(S(=O)(=O)O)c3cc(S(=O)(=O)O)cc(S(=O)(=O)O)c32)=C/C1=N/C(=O)C1=CC=C/C(=N\C(=O)/N=C2\C=CC=C(C(=O)/N=C3/CC(C(=O)/N=C4\CC=C(S(=O)(=O)O)c5cc(S(=O)(=O)O)cc(S(=O)(=O)O)c54)=CC=C3C)C2)C1

- IC50 [17]: 100 nM
Structure (SMILES): CCC(Sc1nnc2c(n1)[nH]c1ccccc12)C(=O)N1c2ccccc2Sc2ccccc21 (configuration not stated)
